Results: paper PMC7483467, “A small molecular compound CC1007 induces cross-lineage differentiation by inhibiting HDAC7 expression and HDAC7/MEF2C interaction in BCR-ABL1^− pre-B-ALL” (Cell Death & Disease, 2020)

Biological target: T1, MEF2C (Homo sapiens, UniProt Q06413)
T1 construct: endogenous intracellular protein in Nalm-6 and primary pre-B-ALL cells; untagged; detected by western blot
Experiment: cellular thermal shift assay (CETSA and ITDRF-CETSA), western blot read-out
Type: cell-based
Conditions: Nalm-6 and primary BCR-ABL1- pre-B-ALL cells; dose-response at 52 °C; endogenous MEF2C

T1 sequence (Q06413 whole entry): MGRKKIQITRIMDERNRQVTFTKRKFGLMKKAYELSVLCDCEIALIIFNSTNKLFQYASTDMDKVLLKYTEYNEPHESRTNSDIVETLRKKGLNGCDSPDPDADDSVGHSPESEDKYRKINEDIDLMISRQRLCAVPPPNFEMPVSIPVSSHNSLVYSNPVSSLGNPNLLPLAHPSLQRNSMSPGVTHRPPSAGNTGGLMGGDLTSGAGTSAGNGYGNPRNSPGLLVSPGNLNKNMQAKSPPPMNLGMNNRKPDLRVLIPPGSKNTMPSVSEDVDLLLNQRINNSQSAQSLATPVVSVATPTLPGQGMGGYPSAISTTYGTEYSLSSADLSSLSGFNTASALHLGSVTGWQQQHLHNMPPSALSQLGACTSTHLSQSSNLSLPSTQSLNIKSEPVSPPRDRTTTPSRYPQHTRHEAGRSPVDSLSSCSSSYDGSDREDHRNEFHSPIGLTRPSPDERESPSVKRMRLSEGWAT

With Nc1ccccc1NC(=O)CCCCCC(=O)Nc1cccc(Br)c1 [CC1007] the “thermal stabilisation (CETSA)” value was “These data indicate that CC1007 directly interacts with intracellular MEF2C”.
